PubChem BioAssay AID488881 (Sanford-Burnham Center for Chemical Genomics, 2010)
Active and inactive are the calls of the source.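 Rule for the calls: active = mean EC50 below 10 µM; inactive = the rest.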

Target: Type-1 angiotensin II receptor (Homo sapiens) (UniProt P30556)
Test: AT1 receptor agonists, beta-arrestin recruitment, SAR follow-up, selectivity assay for APJ agonist project, cell-based, CHO-K1 PathHunter, luminescence (AID 488881)
Settings: CHO-K1 AGTR1 PathHunter beta-arrestin

Chain of Type-1 angiotensin II receptor (Homo sapiens) (P30556 whole entry, looked up): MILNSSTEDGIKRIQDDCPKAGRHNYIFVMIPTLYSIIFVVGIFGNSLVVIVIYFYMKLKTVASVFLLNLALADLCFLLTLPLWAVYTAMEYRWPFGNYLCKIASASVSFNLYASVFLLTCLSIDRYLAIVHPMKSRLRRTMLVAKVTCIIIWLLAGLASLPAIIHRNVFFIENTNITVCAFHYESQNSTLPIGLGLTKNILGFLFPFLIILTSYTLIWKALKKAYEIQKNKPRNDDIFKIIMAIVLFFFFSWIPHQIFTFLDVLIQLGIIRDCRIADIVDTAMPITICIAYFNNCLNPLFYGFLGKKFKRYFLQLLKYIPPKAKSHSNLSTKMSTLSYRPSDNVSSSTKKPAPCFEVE

SMILES	EC50
CCc1c(O)nc(SCc2ccccc2)n(C(C)CC)c1=O (configuration not stated)	> 79 µM (inactive)
C=CCSc1nc(O)c(CC)c(=O)n1-c1ccc(C)cc1	> 79 µM (inactive)
CC1=C/C(=N\OS(=O)(=O)c2ccc(C)cc2)C(C)=CC1=O	> 79 µM (inactive)
COc1ccc(S(=O)(=O)O/N=C2\C=C(C(C)C)C(=O)C=C2C)cc1	> 79 µM (inactive)
CC1=C/C(=N/OS(=O)(=O)c2ccccc2)C(C)=CC1=O	> 79 µM (inactive)
CCc1c(O)nc(SC)n(C2CCCCC2)c1=O	> 79 µM (inactive)
CCSc1nc(O)c(CC)c(=O)n1C1CCCCC1	> 79 µM (inactive)
CC1=C/C(=N/OS(=O)(=O)c2ccc(C)cc2)C=CC1=O	> 79 µM (inactive)
CCSc1nc(O)c(CC)c(=O)n1C(C)CC (configuration not stated)	> 79 µM (inactive)
CC1=CC(=O)C(C(C)C)=C/C1=N/OS(=O)(=O)c1ccccc1	> 79 µM (inactive)
CC1=CC(=NOS(=O)(=O)c2ccccc2)C=CC1=O	> 79 µM (inactive)
CCc1c(O)n(C2CCCCC2)c(=S)[nH]c1=O	> 79 µM (inactive)
CCN1/C(=C/C(=O)c2sc(=S)n(CC)c2O)Sc2ccccc21	> 79 µM (inactive)
CC1=CC(=O)C(C(C)C)=CC1=NOS(=O)(=O)c1ccccc1	> 79 µM (inactive)
CCCCSc1nc(O)c(CC)c(=O)n1C1CCCCC1	> 79 µM (inactive)
CC1=CC(=NOS(=O)(=O)c2ccccc2)C=C(C)C1=O	> 79 µM (inactive)
O=S(=O)(Nc1nc(-c2ccccc2)cs1)c1ccc(Br)cc1	> 79 µM (inactive)
CC1=C/C(=N\OS(=O)(=O)c2ccc(Cl)cc2)C=CC1=O	> 79 µM (inactive)
CC1=CC(=O)C=C/C1=N\OS(=O)(=O)c1ccc(C)cc1	> 79 µM (inactive)
CC1=C(C)C(=NOS(=O)(=O)c2ccc(C)cc2)C=CC1=O	> 79 µM (inactive)
C=CCSc1nc(O)c(CC)c(=O)n1C(C)CC (configuration not stated)	> 79 µM (inactive)

SMILES	EC50
CN(C)CCSc1nc(O)c(-c2ccccc2)c(=O)n1-c1ccccc1	> 79 µM (inactive)
CSc1nc(=O)cc(N)n1-c1ccc(C)cc1	> 79 µM (inactive)
O=S(=O)(Nc1nc(-c2ccccc2)cs1)c1ccc(Cl)cc1	> 79 µM (inactive)
Cc1ccc(S(=O)(=O)ON=C2C=CC(=O)C=C2)cc1	> 79 µM (inactive)
CC1=CC(=NOS(=O)(=O)c2ccccc2)C(C(C)C)=CC1=O	> 79 µM (inactive)
C=CCSc1nc(O)c(CC)c(=O)n1C1CCCCC1	> 79 µM (inactive)
CCCSc1nc(O)c(CC)c(=O)n1C(C)CC (configuration not stated)	> 79 µM (inactive)
CCc1c(O)nc(SC)n(C(C)CC)c1=O (configuration not stated)	> 79 µM (inactive)
Cc1ccc(S(=O)(=O)Nc2nc(-c3ccccc3)cs2)cc1	> 79 µM (inactive)
CC1=CC(=O)C=C(C)C1=NOS(=O)(=O)c1ccccc1	> 79 µM (inactive)
CCCCSc1nnc(NC(=O)CSc2nc3ncccc3[nH]2)s1	> 79 µM (inactive)
Cc1cc(C)n2nc3nc(N4CCOCC4)nc(-c4ccccc4)c3c2n1	> 79 µM (inactive)
CCc1c(O)nc(SC(C)CC)n(C(C)CC)c1=O (configuration not stated)	> 79 µM (inactive)
CCc1c(O)nc(SCc2ccccc2)n(C2CCCCC2)c1=O	> 79 µM (inactive)
COc1ccc(S(=O)(=O)ON=C2C=C(C)C(=O)C(C)=C2)cc1	> 79 µM (inactive)
CCN1/C(=C\C=C2/SC(=S)N(C)C2=O)Sc2ccccc21	> 79 µM (inactive)
C=CCn1c(SCc2ccccc2)nc(O)c(CC)c1=O	> 79 µM (inactive)
CC1=CC(=NOS(=O)(=O)c2ccc(C)cc2)C=C(C)C1=O	> 79 µM (inactive)
COc1ccccc1-n1c(SCC(=O)c2ccccc2)nc(O)cc1=O	> 79 µM (inactive)
CC1=C/C(=N/OS(=O)(=O)c2ccc(C)cc2)C(C(C)C)=CC1=O	> 79 µM (inactive)
CC1=CC(=NOS(=O)(=O)c2ccc(Cl)cc2)C=C(C)C1=O	> 79 µM (inactive)
